Measurements: US20210053957A1, “HERBICIDAL COMPOUNDS” (SYNGENTA PARTICIPATIONS AG, priority 2018, published 2021)

Assays:
Assay in all cases: Post-emergence efficacy, glasshouse spray test
Format in all cases: in vivo
Settings in all cases: evaluated after 13 days
[1] = test system: Setaia fabei (SETFA)
In short: (§1)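 Pot-grown plants sprayed 14 days after sowing, held in glasshouse at 24/16° C day/night, 14 h light, 65% humidity. Active formulated in acetone plus IF50 as 50 g/l stock, diluted in 0.25% or 1% Empicol ESC70 + 1% ammonium sulphate. Damage scored after 13 days, 0 (none) to 100 (total).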

[2] = test system: Digitaria sanguinalis (DIGSA)
In short: as §1

[3] = test system: Echinochloa crus-galli (ECHCG)
In short: as §1

[4] = test system: Lolium perenne (LOLPE)
In short: as §1

[5] = test system: Euphorbia heterophylla (EPHHL)
In short: as §1

[6] = test system: Amaranthus palmeri (AMAPA)
In short: as §1

[7] = test system: Chenopodium album (CHEAL)
In short: as §1

[8] = test system: Eleusine indica (ELEIN)
In short: as §1

[9] = test system: Ipomoea hederacea (IPOHE)
In short: as §1

[10] = Setaria faberi, post-emergence, 312 h, Application Rate 500 g/Ha, read-out: Control of weed species after post-emergence application, SETFA (100=total damage to plant; 0=no damage to plant)
[11] = Digitaria sanguinalis, post-emergence, 312 h, Application Rate 500 g/Ha, read-out: Control of weed species after post-emergence application, DIGSA (100=total damage to plant; 0=no damage to plant)
[12] = Echinochloa crus-galli, post-emergence, 312 h, Application Rate 500 g/Ha, read-out: Control of weed species after post-emergence application, ECHCG (100=total damage to plant; 0=no damage to plant)
[13] = Lolium perenne, post-emergence, 312 h, Application Rate 500 g/Ha, read-out: Control of weed species after post-emergence application, LOLPE (100=total damage to plant; 0=no damage to plant)
[14] = Euphorbia heterophylla, post-emergence, 312 h, Application Rate 500 g/Ha, read-out: Control of weed species after post-emergence application, EPHHL (100=total damage to plant; 0=no damage to plant)
[15] = Amaranthus palmeri, post-emergence, 312 h, Application Rate 500 g/Ha, read-out: Control of weed species after post-emergence application, AMAPA (100=total damage to plant; 0=no damage to plant)
[16] = Chenopodium album, post-emergence, 312 h, Application Rate 500 g/Ha, read-out: Control of weed species after post-emergence application, CHEAL (100=total damage to plant; 0=no damage to plant)
[17] = Eleusine indica, post-emergence, 312 h, Application Rate 500 g/Ha, read-out: Control of weed species after post-emergence application, ELEIN (100=total damage to plant; 0=no damage to plant)
[18] = Ipomoea hederacea, post-emergence, 312 h, Application Rate 500 g/Ha, read-out: Control of weed species after post-emergence application, IPOHE (100=total damage to plant; 0=no damage to plant)

Compound | pest or weed control at 500 g/ha [1, 10] [%] | pest or weed control at 500 g/ha [2, 11] [%] | pest or weed control at 500 g/ha [3, 12] [%] | pest or weed control at 500 g/ha [4, 13] [%] | pest or weed control at 500 g/ha [5, 14] [%] | pest or weed control at 500 g/ha [6, 15] [%] | pest or weed control at 500 g/ha [7, 16] [%] | pest or weed control at 500 g/ha [8, 17] [%] | pest or weed control at 500 g/ha [9, 18] [%] | further results
O=S(=O)([O-])CCC[n+]1ccc(-c2ncco2)cn1 [Compound A3, 3-(4-oxazol-2-ylpyridazin-1-ium-1-yl)propane-1-sulfonate] |  |  |  |  |  |  |  |  |  | pest or weed control at 125 g/ha ([1]; Setaria faberi, post-emergence, 312 h, Application Rate 125 g/Ha, read-out: Control of weed species after post-emergence application, SETFA (100=total damage to plant; 0=no damage to plant)): 80%; pest or weed control at 125 g/ha ([2]; Digitaria sanguinalis, post-emergence, 312 h, Application Rate 125 g/Ha, read-out: Control of weed species after post-emergence application, DIGSA (100=total damage to plant; 0=no damage to plant)): 80%; pest or weed control at 125 g/ha ([3]; Echinochloa crus-galli, post-emergence, 312 h, Application Rate 125 g/Ha, read-out: Control of weed species after post-emergence application, ECHCG (100=total damage to plant; 0=no damage to plant)): 70%; pest or weed control at 125 g/ha ([4]; Lolium perenne, post-emergence, 312 h, Application Rate 125 g/Ha, read-out: Control of weed species after post-emergence application, LOLPE (100=total damage to plant; 0=no damage to plant)): 20%; pest or weed control at 125 g/ha ([5]; Euphorbia heterophylla, post-emergence, 312 h, Application Rate 125 g/Ha, read-out: Control of weed species after post-emergence application, EPHHL (100=total damage to plant; 0=no damage to plant)): 70%; pest or weed control at 125 g/ha ([6]; Amaranthus palmeri, post-emergence, 312 h, Application Rate 125 g/Ha, read-out: Control of weed species after post-emergence application, AMAPA (100=total damage to plant; 0=no damage to plant)): 20%; pest or weed control at 125 g/ha ([7]; Chenopodium album, post-emergence, 312 h, Application Rate 125 g/Ha, read-out: Control of weed species after post-emergence application, CHEAL (100=total damage to plant; 0=no damage to plant)): 60%; pest or weed control at 125 g/ha ([8]; Eleusine indica, post-emergence, 312 h, Application Rate 125 g/Ha, read-out: Control of weed species after post-emergence application, ELEIN (100=total damage to plant; 0=no damage to plant)): 50%; pest or weed control at 125 g/ha ([9]; Ipomoea hederacea, post-emergence, 312 h, Application Rate 125 g/Ha, read-out: Control of weed species after post-emergence application, IPOHE (100=total damage to plant; 0=no damage to plant)): 40%
Cc1cc(-c2cc[n+](CCS(=O)(=O)[O-])nc2)sn1 [Compound A35] | 60 | 50 | 50 | 70 | 90 | 100 | 100 | 70 | 50 | 
Cn1nccc1-c1cc[n+](CCCS(=O)(=O)[O-])nc1 [Compound A4] | 20 | 30 | 20 | 0 | 40 | 10 | 30 | 10 | 10 | 
COP(=O)(CC[n+]1ccc(-c2ncco2)cn1)OC.O=C([O-])C(F)(F)F [Compound A108] |  |  |  |  |  |  |  |  |  | Control of weed species after post-emergence application, SETFA (100=total damage to plant; 0=no damage to plant) ([1]; Application Rate 500 g/Ha): 30; Control of weed species after post-emergence application, DIGSA (100=total damage to plant; 0=no damage to plant) ([2]; Application Rate 500 g/Ha): 60; Control of weed species after post-emergence application, ECHCG (100=total damage to plant; 0=no damage to plant) ([3]; Application Rate 500 g/Ha): 30; Control of weed species after post-emergence application, LOLPE (100=total damage to plant; 0=no damage to plant) ([4]; Application Rate 500 g/Ha): 10; Control of weed species after post-emergence application, EPHHL (100=total damage to plant; 0=no damage to plant) ([5]; Application Rate 500 g/Ha): 30; Control of weed species after post-emergence application, AMAPA (100=total damage to plant; 0=no damage to plant) ([6]; Application Rate 500 g/Ha): 20; Control of weed species after post-emergence application, CHEAL (100=total damage to plant; 0=no damage to plant) ([7]; Application Rate 500 g/Ha): 20; Control of weed species after post-emergence application, ELEIN (100=total damage to plant; 0=no damage to plant) ([8]; Application Rate 500 g/Ha): 20; Control of weed species after post-emergence application, IPOHE (100=total damage to plant; 0=no damage to plant) ([9]; Application Rate 500 g/Ha): 30
Cc1coc(-c2cc[n+](CCCS(=O)(=O)[O-])nc2)n1 [Compound A136] | 80 | 70 | 40 | 60 | 70 | 70 | 30 | 60 | 20 | 
O=S(=O)([O-])CC[n+]1ccc(-c2nc(C(F)(F)F)co2)cn1 [Compound A57] | 60 | 70 | 80 | 50 | 90 | 100 | 100 | 60 | 60 | 
O=C(O)C[n+]1ccc(-c2ncco2)cn1 [Compound A71] | 90 | 90 | 100 | 80 | 90 | 100 | 90 | 100 | 60 | 
CC(C[n+]1ccc(-c2ncco2)cn1)NS(=O)(=O)[O-] (stereo not drawn) [Compound A89] | 60 | 90 | 60 | 60 | 100 | 100 | 90 | 70 | 30 | 
